Results on 14 molecules are retold here after patent US6706740B2, “Fungicidal heterocyclic aromatic amides and their compositions, methods of use and preparation” (Dow AgroSciences LLC, priority 1999, dated 2004).

The subject of assay [1] is Magnaporthe grisea (Pyricularia oryzae—PYRIOR). The assay can be described thus: microbe, parasite or virus in culture. The assay is classed as cell-based. The conditions noted are these: Pyricularia oryzae, read-out: PYRIOR in vitro Growth Inhibition.
For assay [2], the system named is Rhizoctonia solani (RHIZSO). The assay can be described thus: microbe, parasite or virus in culture. The note with it: Rhizoctonia solani, read-out: RHIZSO in vitro Growth Inhibition. The assay is classed as cell-based.
Assay [3] has as its system Mycosphaerella graminicola (Septoria tritici—SEPTTR). The assay can be described thus: In vitro fungal growth inhibition, Mycosphaerella graminicola (SEPTTR). The assay is classed as cell-based. The conditions noted are these: Zymoseptoria tritici; 25 ppm in growth medium; read-out: SEPTTR in vitro Growth Inhibition.
For assay [4], the system named is Stagonospora nodorum (Leptosphaeria nodorum—LEPTNO). As to the kind of experiment: In vitro fungal growth inhibition, Stagonospora nodorum (LEPTNO). The assay is classed as cell-based. The note with it: Leptosphaeria; 25 ppm in growth medium; read-out: LEPTNO in vitro Growth Inhibition.
The next assay relates to Ustilago maydis (USTIMA). As to the kind of experiment: microbe, parasite or virus in culture. The assay is classed as cell-based. The note with it: Mycosarcoma maydis, read-out: USTIMA in vitro Growth Inhibition.
Assay [5] relates to Phytophthora infestans (PHYTIN). The assay can be described thus: microbe, parasite or virus in culture. The note with it: Phytophthora infestans, read-out: PHYTIN in vitro Growth Inhibition. The assay is classed as cell-based.
In assay [6] the test system is Phytophthora infestans—PHYTIN. As to the kind of experiment: whole plant or invertebrate. The conditions noted are these: Phytophthora, in Solanum lycopersicum, 24 h, read-out: PHYTIN in vivo 1 Day Protectant. The assay is classed as in vivo.
Assay [7] has as its system Puccinia recondita—PUCCRT. The assay can be described thus: Brown Rust of Wheat, in vivo whole plant, 24 Hour Protectant. The conditions noted are these: Puccinia; 100 ppm spray, wheat, 24 hour protectant; control of fungal infection vs untreated plants; read-out: PUCCRT in vivo 1 Day Protectant.
The test system of the next assay is Erysiphe graminis—ERYSGT. As to the kind of experiment: Powdery Mildew of Wheat, in vivo whole plant, 24 Hour Protectant. The conditions noted are these: Erysiphe; 100 ppm spray, wheat, 24 hour protectant; control of fungal infection vs untreated plants; read-out: ERYSGT in vivo 1 Day Protectant.
Another assay concerns Septoria tritici—SEPTTR. The assay can be described thus: Leaf Blotch of Wheat, in vivo whole plant, 24 Hour Protectant. The note with it: Zymoseptoria tritici, 24 h, 100 ppm spray, wheat, 24 hour protectant; control of fungal infection vs untreated plants; read-out: SEPTTR in vivo 1 Day Protectant.
The test system of assay [8] is Leptosphaeria nodorum—LEPTNO. As to the kind of experiment: Glume Blotch of Wheat, in vivo whole plant, 24 Hour Protectant. The note with it: Leptosphaeria; 100 ppm spray, wheat, 24 hour protectant; control of fungal infection vs untreated plants; read-out: LEPTNO in vivo 1 Day Protectant.

For the molecule `COc1ccnc(C(=O)Nc2ccc(Oc3ccccc3C#N)cc2)c1O` [Compound 420], the inhibition at 25 ppm (in assay [1]; in assay [2]; in assay [3]; in [4]; in the assay on Ustilago maydis (USTIMA); in assay [5]) was less than 80% each time. Also, the pest or weed control at 100 ppm was less than 25% in assay [6]; less than 25% in [7]; less than 25% in the assay with Erysiphe graminis—ERYSGT; less than 25% in the assay on Septoria tritici—SEPTTR; 25 to 74% in assay [8].
Turning to `COc1ccnc(C(=O)Nc2ccc(Oc3cccc(C#N)c3)cc2)c1O` [Compound 421], the inhibition at 25 ppm (in [1]; in assay [2]; in assay [3]; in assay [4]; with Ustilago maydis (USTIMA); in assay [5]) was less than 80% each time. Also, the pest or weed control at 100 ppm is less than 25% in assay [6]; less than 25% in assay [7]; less than 25% in the assay on Erysiphe graminis—ERYSGT; less than 25% in the assay on Septoria tritici—SEPTTR; 25 to 74% in assay [8].
As for `COc1ccnc(C(=O)Nc2ccc(Oc3ccc(C#N)cc3)cc2)c1O` [Compound 422], the inhibition at 25 ppm in [1] was greater than 80%; in [2] it was less than 80%; in [3], less than 80%; in [4], less than 80%; in the assay with Ustilago maydis (USTIMA), less than 80%; in [5] it was less than 80%. In addition, the pest or weed control at 100 ppm in assay [6] was 25 to 74%; in assay [7], less than 25%; in the assay with Erysiphe graminis—ERYSGT it was less than 25%; in the assay with Septoria tritici—SEPTTR, less than 25%; in [8] it was less than 25%.
For the molecule `COc1ccnc(C(=O)Nc2cccc(Oc3ccc(C(F)(F)F)cc3)c2)c1O` [Compound 423], the inhibition at 25 ppm in assay [1] is greater than 80%; in [2], less than 80%; in assay [3] it was less than 80%; in [4] it was less than 80%; with Ustilago maydis (USTIMA), less than 80%; in assay [5], less than 80%. Moreover, the pest or weed control at 100 ppm in [6] is less than 25%; in [7], 25 to 74%; with Erysiphe graminis—ERYSGT, less than 25%; with Septoria tritici—SEPTTR it was 25 to 74%; in [8], 25 to 74%.
For the molecule `COc1ccnc(C(=O)Nc2ccc(Oc3cccc(C(F)(F)F)c3)cc2)c1O` [Compound 424], the inhibition at 25 ppm in [1] is less than 80%; in assay [2] it was less than 80%; in assay [3], less than 80%; in assay [4], greater than 80%; in the assay with Ustilago maydis (USTIMA) it was less than 80%; in [5], less than 80%. The pest or weed control at 100 ppm (in assay [6]; in [7]; in the assay on Erysiphe graminis—ERYSGT; in the assay on Septoria tritici—SEPTTR; in assay [8]) was 25 to 74% in each case.
Consider `COc1ccnc(C(=O)Nc2ccc(Oc3ccc(C(F)(F)F)cc3)cc2)c1O` [Compound 425, 3-HYDROXY-4-METHOXY-N-(4-(4-TRIFLUOROMETHYLPHENOXY)PHENYL)-PYRIDINE-2-CARBOXAMIDE], for which the inhibition at 25 ppm was greater than 80% in assay [1]; greater than 80% in assay [2]; greater than 80% in assay [3]; greater than 80% in [4]; less than 80% in the assay on Ustilago maydis (USTIMA); less than 80% in assay [5]. The pest or weed control at 100 ppm in assay [6] was 25 to 74%; in assay [7], 25 to 74%; with Erysiphe graminis—ERYSGT, less than 25%; with Septoria tritici—SEPTTR it was 25 to 74%; in [8] it was less than 25%.
Take `COc1cccc(Oc2ccccc2NC(=O)c2nccc(OC)c2O)c1` [Compound 428]: the inhibition at 25 ppm in assay [1] is greater than 80%; in [2], less than 80%; in assay [3], greater than 80%; in assay [4], less than 80%; with Ustilago maydis (USTIMA), less than 80%; in assay [5] it was less than 80%. The pest or weed control at 100 ppm (in assay [6]; in assay [7]; in the assay with Erysiphe graminis—ERYSGT; in the assay on Septoria tritici—SEPTTR; in assay [8]) was less than 25% in each case.
For the molecule `COc1ccc(Oc2ccccc2NC(=O)c2nccc(OC)c2O)cc1` [Compound 429], the inhibition at 25 ppm is less than 80% in assay [1]; less than 80% in assay [2]; greater than 80% in assay [3]; less than 80% in [4]; less than 80% in the assay on Ustilago maydis (USTIMA); less than 80% in assay [5]. For the same molecule, the pest or weed control at 100 ppm (in assay [6]; in assay [7]; in the assay with Erysiphe graminis—ERYSGT; in the assay with Septoria tritici—SEPTTR; in [8]) was less than 25% in each case.
`COc1ccccc1Oc1cccc(NC(=O)c2nccc(OC)c2O)c1` [Compound 430]: the inhibition at 25 ppm (in [1]; in assay [2]; in [3]; in assay [4]; in the assay with Ustilago maydis (USTIMA); in assay [5]) was less than 80% each time. Moreover, the pest or weed control at 100 ppm was 25 to 74% in [6]; less than 25% in [7]; less than 25% in the assay with Erysiphe graminis—ERYSGT; less than 25% with Septoria tritici—SEPTTR; less than 25% in assay [8].
Consider `COc1cccc(Oc2cccc(NC(=O)c3nccc(OC)c3O)c2)c1` [Compound 431], for which the inhibition at 25 ppm in assay [1] is less than 80%; in assay [2] it was less than 80%; in [3], greater than 80%; in assay [4], greater than 80%; with Ustilago maydis (USTIMA), less than 80%; in assay [5], less than 80%. The pest or weed control at 100 ppm in assay [6] was less than 25%; in [7], less than 25%; in the assay with Erysiphe graminis—ERYSGT it was less than 25%; in the assay on Septoria tritici—SEPTTR, 25 to 74%; in assay [8], less than 25%.
Take `COc1ccc(Oc2cccc(NC(=O)c3nccc(OC)c3O)c2)cc1` [Compound 432]: the inhibition at 25 ppm is less than 80% in assay [1]; less than 80% in assay [2]; greater than 80% in assay [3]; greater than 80% in [4]; less than 80% in the assay on Ustilago maydis (USTIMA); less than 80% in [5]. For the same molecule, the pest or weed control at 100 ppm in [6] was less than 25%; in assay [7], 25 to 74%; in the assay on Erysiphe graminis—ERYSGT, less than 25%; in the assay on Septoria tritici—SEPTTR, less than 25%; in assay [8], 25 to 74%.
`COc1ccccc1Oc1ccc(NC(=O)c2nccc(OC)c2O)cc1` [Compound 433]: the inhibition at 25 ppm was less than 80% in assay [1]; less than 80% in [2]; greater than 80% in assay [3]; less than 80% in [4]; less than 80% with Ustilago maydis (USTIMA); less than 80% in [5]. The pest or weed control at 100 ppm (in assay [6]; in [7]; with Erysiphe graminis—ERYSGT; with Septoria tritici—SEPTTR; in assay [8]) was less than 25% each time.
With `COc1cccc(Oc2ccc(NC(=O)c3nccc(OC)c3O)cc2)c1` [Compound 434], the inhibition at 25 ppm in assay [1] is less than 80%; in assay [2] it was less than 80%; in [3] it was greater than 80%; in assay [4], greater than 80%; in the assay on Ustilago maydis (USTIMA), less than 80%; in assay [5], less than 80%. Besides, the pest or weed control at 100 ppm in [6] was less than 25%; in assay [7], less than 25%; in the assay on Erysiphe graminis—ERYSGT it was 25 to 74%; in the assay with Septoria tritici—SEPTTR, less than 25%; in [8], 25 to 74%.
For the molecule `COc1ccc(Oc2ccc(NC(=O)c3nccc(OC)c3O)cc2)cc1` [Compound 435], the inhibition at 25 ppm is less than 80% in assay [1]; less than 80% in [2]; greater than 80% in assay [3]; less than 80% in assay [4]; less than 80% in the assay on Ustilago maydis (USTIMA); less than 80% in assay [5]. Moreover, the pest or weed control at 100 ppm was less than 25% in [6]; less than 25% in [7]; less than 25% with Erysiphe graminis—ERYSGT; less than 25% with Septoria tritici—SEPTTR; 25 to 74% in [8].
